Results as given in BigSolDB 2.1.

CS(=O)(=O)c1cccc(C[C@H](NC(=O)c2c(Cl)cc3c(c2Cl)CCN(C(=O)c2ccc4ccoc4c2)C3)C(=O)O)c1
Details | solubility (mole fraction)
in PEG-400, 288.15 K | 0.0757
in PEG-400, 293.15 K | 0.0767
in PEG-400, 298.15 K | 0.0776
in PEG-400, 303.15 K | 0.0786
in PEG-400, 308.15 K | 0.0796

solubility (mole fraction)
Details | 288.15 K | 293.15 K | 298.15 K | 303.15 K | 308.15 K
in glycerin | 0.000104 | 0.000118 | 0.000133 | 0.000151 | 0.000167
in propylene glycol | 0.00102 | 0.00119 | 0.00138 | 0.00161 | 0.00183
in transcutol | 0.015 | 0.0159 | 0.0168 | 0.0178 | 0.0187
in water | 1.49e-06 | 1.85e-06 | 2.31e-06 | 2.79e-06 | 3.37e-06
